In patent US11780901B2, “Analogues of parathyroid hormone (1-34) that function as agonists of the parathyroid hormone receptor-1 and display modified activity profiles” (Wisconsin Alumni Research Foundation, priority 2013, dated 2023):
Read-outs that look alike come from different tables or passages of the source. Starred links: 1 amine or outer side, 2 acyl side, 3 side chain; linkers in the order of their positions; H or OH if unused. Non-standard residues stand in square brackets, D forms with d. Residues, ends and D or L forms follow the SMILES beside them. X4 = O=C(O)CC[C@@H](CN[*:1])C(=O)[*:2]; X7 = NC(=O)CC[C@@H](CN[*:1])C(=O)[*:2]

Experiments:
Type in all cases: cell-based
[1] = test system: PTHR1 and PTHR2; experiment: Tolerance pattern of β residues for PTHR1 and PTHR2 activation; design: key: “*” denotes potent PTHR1-selective agonism; “#” denotes potent PTHR2-selective agonism; “*#” denotes potent agonism of both PTHR1 and PTHR2; details: PTHR1 vs PTHR2 agonism
Text: Enhanced selectivity via double α→β replacement.

[2] = target: T1, PTHR1 (Homo sapiens, UniProt Q03431); experiment: PTHR1 activation, cAMP production (GloSensor) in HEK293 cells; design: expressed in transfected cells; details: for PTHR1 Activation: Derivative EC50/PTH EC50: normalized to EC50 of PTH(1-34)-NH2 ([…]), cAMP production
T1 sequence (Q03431 27-593): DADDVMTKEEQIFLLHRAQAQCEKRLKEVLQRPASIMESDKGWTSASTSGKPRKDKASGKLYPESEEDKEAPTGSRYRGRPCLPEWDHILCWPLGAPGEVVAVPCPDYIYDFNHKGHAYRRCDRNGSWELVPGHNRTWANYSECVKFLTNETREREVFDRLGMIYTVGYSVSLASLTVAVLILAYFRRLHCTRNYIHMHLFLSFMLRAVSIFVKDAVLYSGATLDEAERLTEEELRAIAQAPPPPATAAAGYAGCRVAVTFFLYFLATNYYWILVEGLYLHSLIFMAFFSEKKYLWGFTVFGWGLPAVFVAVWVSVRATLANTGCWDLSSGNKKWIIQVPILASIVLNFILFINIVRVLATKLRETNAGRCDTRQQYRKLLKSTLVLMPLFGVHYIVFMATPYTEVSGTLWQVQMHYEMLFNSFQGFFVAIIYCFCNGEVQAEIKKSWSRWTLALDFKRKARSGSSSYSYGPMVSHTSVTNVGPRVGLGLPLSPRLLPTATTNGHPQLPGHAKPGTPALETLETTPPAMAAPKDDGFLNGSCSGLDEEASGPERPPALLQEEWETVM
Text: The assays employ HEK-293 cells that have been engineered to express the appropriate receptor. GloSensor-based detection of cAMP provides a read-out of receptor activation.
(§1) For PTHR1 activation and all the binding data, data represent mean±s.e.m from three independent measurements; For PTHR2 activation, data represent mean±s.e.m from four independent measurements. Curves were fit to the data using a four-parameter sigmoidal dose-response equation.
For cAMP dose-response assays, monolayers of confluent HEK 293 cells were pre-incubated with buffer containing d-luciferin (0.5 mM) in 96 well plates at room temperature until a stable baseline level of luminescence was established (30 min). Varying concentrations of agonist were then added, and the time course of luminescence response was recorded using a Perkin Elmer plate reader following α/β-peptide addition.

[3] = target: PTHR2 (Homo sapiens, UniProt P49190); experiment: PTHR2 activation, cAMP production (GloSensor) in HEK293 cells; design: expressed in transfected cells; key to PTHR2 Activation: Derivative EC50/PTH EC50: *** denotes poor tolerance of β amino acid for PTHR2 activation; details: for EC50: HEK-293 cells, GloSensor cAMP, read-out: EC50 (nM) of PTHR2 Activation
Text: The assays employ HEK-293 cells that have been engineered to express the appropriate receptor. GloSensor-based detection of cAMP provides a read-out of receptor activation. […] (Carter, P. H. et al. Actions of the Small Molecule Ligands SW106 and AH-3960 on the Type-1 Parathyroid Hormone Receptor. Molecular Endocrinology 29, 307-321 (2015).)
as §1, with “FIGS. 10A and 10B depict dose-response curves of PTHR1 activation (FIG. 10A) and PTHR2 activation (FIG. 10B) in HEK293 cells stably expressing PTHR1 or PTHR2. For PTHR1” for “For PTHR1”

[4] = HEK-293 cells, GloSensor cAMP, read-out: EC50 (nM) of PTHR1 Activation
[5] = Table 8, hPTHR1, read-out: PTHR1 EC50

PTHR2, sequence (P49190 25-550): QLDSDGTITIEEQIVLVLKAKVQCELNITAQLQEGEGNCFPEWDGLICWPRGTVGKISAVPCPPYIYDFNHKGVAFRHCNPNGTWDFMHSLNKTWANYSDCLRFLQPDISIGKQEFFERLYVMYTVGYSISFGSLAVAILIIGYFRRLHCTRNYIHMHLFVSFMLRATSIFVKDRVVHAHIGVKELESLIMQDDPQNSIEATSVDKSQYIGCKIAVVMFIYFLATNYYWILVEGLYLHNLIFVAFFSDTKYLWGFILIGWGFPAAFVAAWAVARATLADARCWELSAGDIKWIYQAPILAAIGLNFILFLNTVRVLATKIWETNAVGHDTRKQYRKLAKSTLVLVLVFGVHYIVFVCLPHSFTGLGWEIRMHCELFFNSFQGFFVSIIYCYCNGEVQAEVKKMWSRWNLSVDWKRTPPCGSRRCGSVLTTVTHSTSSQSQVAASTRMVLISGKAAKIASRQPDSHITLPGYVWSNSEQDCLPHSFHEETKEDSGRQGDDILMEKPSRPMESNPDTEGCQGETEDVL

## CC[C@H](C)[C@H](NC(=O)[C@H](CCC(=O)O)NC(=O)[C@H](CO)NC(=O)[C@@H](CNC(=O)[C@@H](N)CO)C(C)C)C(=O)N[C@@H](CCC(N)=O)C(=O)N[C@@H](CC(C)C)C(=O)N[C@@H](CCSC)C(=O)N[C@@H](Cc1c[nH]cn1)C(=O)N[C@@H](CC(N)=O)C(=O)N[C@@H](CC(C)C)C(=O)NCC(=O)N[C@@H](CCCCN)C(=O)N[C@@H](Cc1c[nH]cn1)C(=O)N[C@@H](CC(C)C)C(=O)N[C@@H](CC(N)=O)C(=O)N[C@@H](CO)C(=O)N[C@@H](CCSC)C(=O)N[C@@H](CCC(=O)O)C(=O)N[C@@H](CCCNC(=N)N)C(=O)N[C@H](C(=O)N[C@@H](CCC(=O)O)C(=O)N[C@@H](Cc1c[nH]c2ccccc12)C(=O)N[C@@H](CC(C)C)C(=O)N[C@@H](CCCNC(=N)N)C(=O)N[C@@H](CCCCN)C(=O)N[C@@H](CCCCN)C(=O)N[C@@H](CC(C)C)C(=O)N[C@@H](CCC(N)=O)C(=O)N[C@@H](CC(=O)O)C(=O)N[C@H](C(=O)N[C@@H](Cc1c[nH]cn1)C(=O)N[C@@H](CC(N)=O)C(=O)N[C@@H](Cc1ccccc1)C(N)=O)C(C)C)C(C)C [SEQ. ID. NO: 23]
[1]
  Tolerance Pattern of β AA: #
[2]; [4]
  EC50: 4.47 ± 0.47 nM
[2]
  PTHR1 Activation: Derivative EC50/PTH EC50: 11.76

## CC[C@H](C)[C@H](NC(=O)[C@@H](CCC(=O)O)CNC(=O)[C@H](CO)NC(=O)[C@@H](NC(=O)[C@@H](N)CO)C(C)C)C(=O)N[C@@H](CCC(N)=O)C(=O)N[C@@H](CC(C)C)C(=O)N[C@@H](CCSC)C(=O)N[C@@H](Cc1c[nH]cn1)C(=O)N[C@@H](CC(N)=O)C(=O)N[C@@H](CC(C)C)C(=O)NCC(=O)N[C@@H](CCCCN)C(=O)N[C@@H](Cc1c[nH]cn1)C(=O)N[C@@H](CC(C)C)C(=O)N[C@@H](CC(N)=O)C(=O)N[C@@H](CO)C(=O)N[C@@H](CCSC)C(=O)N[C@@H](CCC(=O)O)C(=O)N[C@@H](CCCNC(=N)N)C(=O)N[C@H](C(=O)N[C@@H](CCC(=O)O)C(=O)N[C@@H](Cc1c[nH]c2ccccc12)C(=O)N[C@@H](CC(C)C)C(=O)N[C@@H](CCCNC(=N)N)C(=O)N[C@@H](CCCCN)C(=O)N[C@@H](CCCCN)C(=O)N[C@@H](CC(C)C)C(=O)N[C@@H](CCC(N)=O)C(=O)N[C@@H](CC(=O)O)C(=O)N[C@H](C(=O)N[C@@H](Cc1c[nH]cn1)C(=O)N[C@@H](CC(N)=O)C(=O)N[C@@H](Cc1ccccc1)C(N)=O)C(C)C)C(C)C [SEQ. ID. NO: 33] (H-SVS[X4]IQLMHNLGKHLNSMERVEWLRKKLQDVHNF-NH2; N-terminus assumed)
[3]
  EC50: > 100 nM
[3]; normalized to EC50 of PTH(1-34)-NH2 ([…] printed), cAMP production
  PTHR2 Activation: Derivative EC50/PTH EC50: ***
[2]; [4]
  EC50: 10.8 ± 0.47 nM
[2]; [5]
  EC50: > 100 nM
[2]
  PTHR1 Activation: Derivative EC50/PTH EC50: 28.42

## CC[C@H](C)[C@H](NC(=O)[C@H](CCC(=O)O)NC(=O)[C@H](CO)NC(=O)[C@@H](NC(=O)[C@@H](N)CO)C(C)C)C(=O)NC[C@H](CCC(N)=O)C(=O)N[C@@H](CC(C)C)C(=O)N[C@@H](CCSC)C(=O)N[C@@H](Cc1c[nH]cn1)C(=O)N[C@@H](CC(N)=O)C(=O)N[C@@H](CC(C)C)C(=O)NCC(=O)N[C@@H](CCCCN)C(=O)N[C@@H](Cc1c[nH]cn1)C(=O)N[C@@H](CC(C)C)C(=O)N[C@@H](CC(N)=O)C(=O)N[C@@H](CO)C(=O)N[C@@H](CCSC)C(=O)N[C@@H](CCC(=O)O)C(=O)N[C@@H](CCCNC(=N)N)C(=O)N[C@H](C(=O)N[C@@H](CCC(=O)O)C(=O)N[C@@H](Cc1c[nH]c2ccccc12)C(=O)N[C@@H](CC(C)C)C(=O)N[C@@H](CCCNC(=N)N)C(=O)N[C@@H](CCCCN)C(=O)N[C@@H](CCCCN)C(=O)N[C@@H](CC(C)C)C(=O)N[C@@H](CCC(N)=O)C(=O)N[C@@H](CC(=O)O)C(=O)N[C@H](C(=O)N[C@@H](Cc1c[nH]cn1)C(=O)N[C@@H](CC(N)=O)C(=O)N[C@@H](Cc1ccccc1)C(N)=O)C(C)C)C(C)C [SEQ. ID. NO: 35] (H-SVSEI[X7]LMHNLGKHLNSMERVEWLRKKLQDVHNF-NH2; N-terminus assumed)
[1]
  Tolerance Pattern of β AA: *#
[2]; [4]
  EC50: 0.42 ± 0.07 nM
[2]; [5]
  EC50: 1.96 ± 0.45 nM
[2]
  PTHR1 Activation: Derivative EC50/PTH EC50: 1.11

## CC[C@H](C)[C@H](NC(=O)[C@H](CCC(=O)O)NC(=O)[C@H](CO)NC(=O)C[C@@H](NC(=O)[C@@H](N)CO)C(C)C)C(=O)N[C@@H](CCC(N)=O)C(=O)N[C@@H](CC(C)C)C(=O)N[C@@H](CCSC)C(=O)N[C@@H](Cc1c[nH]cn1)C(=O)N[C@@H](CC(N)=O)C(=O)N[C@@H](CC(C)C)C(=O)NCC(=O)N[C@@H](CCCCN)C(=O)N[C@@H](Cc1c[nH]cn1)C(=O)N[C@@H](CC(C)C)C(=O)N[C@@H](CC(N)=O)C(=O)N[C@@H](CO)C(=O)N[C@@H](CCSC)C(=O)N[C@@H](CCC(=O)O)C(=O)N[C@@H](CCCNC(=N)N)C(=O)N[C@H](C(=O)N[C@@H](CCC(=O)O)C(=O)N[C@@H](Cc1c[nH]c2ccccc12)C(=O)N[C@@H](CC(C)C)C(=O)N[C@@H](CCCNC(=N)N)C(=O)N[C@@H](CCCCN)C(=O)N[C@@H](CCCCN)C(=O)N[C@@H](CC(C)C)C(=O)N[C@@H](CCC(N)=O)C(=O)N[C@@H](CC(=O)O)C(=O)N[C@H](C(=O)N[C@@H](Cc1c[nH]cn1)C(=O)N[C@@H](CC(N)=O)C(=O)N[C@@H](Cc1ccccc1)C(N)=O)C(C)C)C(C)C [SEQ. ID. NO: 39]
[1]
  Tolerance Pattern of β AA: *#

## CC[C@H](C)[C@H](NC(=O)[C@H](CCC(=O)O)NC(=O)C[C@H](CO)NC(=O)[C@@H](NC(=O)[C@@H](N)CO)C(C)C)C(=O)N[C@@H](CCC(N)=O)C(=O)N[C@@H](CC(C)C)C(=O)N[C@@H](CCSC)C(=O)N[C@@H](Cc1c[nH]cn1)C(=O)N[C@@H](CC(N)=O)C(=O)N[C@@H](CC(C)C)C(=O)NCC(=O)N[C@@H](CCCCN)C(=O)N[C@@H](Cc1c[nH]cn1)C(=O)N[C@@H](CC(C)C)C(=O)N[C@@H](CC(N)=O)C(=O)N[C@@H](CO)C(=O)N[C@@H](CCSC)C(=O)N[C@@H](CCC(=O)O)C(=O)N[C@@H](CCCNC(=N)N)C(=O)N[C@H](C(=O)N[C@@H](CCC(=O)O)C(=O)N[C@@H](Cc1c[nH]c2ccccc12)C(=O)N[C@@H](CC(C)C)C(=O)N[C@@H](CCCNC(=N)N)C(=O)N[C@@H](CCCCN)C(=O)N[C@@H](CCCCN)C(=O)N[C@@H](CC(C)C)C(=O)N[C@@H](CCC(N)=O)C(=O)N[C@@H](CC(=O)O)C(=O)N[C@H](C(=O)N[C@@H](Cc1c[nH]cn1)C(=O)N[C@@H](CC(N)=O)C(=O)N[C@@H](Cc1ccccc1)C(N)=O)C(C)C)C(C)C [SEQ. ID. NO: 40]
[1]
  Tolerance Pattern of β AA: #

## CC[C@H](C)[C@H](NC(=O)[C@H](CCC(=O)O)NC(=O)[C@H](CO)NC(=O)[C@@H](NC(=O)[C@@H](N)CO)C(C)C)C(=O)N[C@@H](CCC(N)=O)C(=O)N[C@@H](CC(C)C)C(=O)N[C@@H](CCSC)CC(=O)N[C@@H](Cc1cnc[nH]1)C(=O)N[C@@H](CC(N)=O)C(=O)N[C@@H](CC(C)C)C(=O)NCC(=O)N[C@@H](CCCCN)C(=O)N[C@@H](Cc1cnc[nH]1)C(=O)N[C@@H](CC(C)C)C(=O)N[C@@H](CC(N)=O)C(=O)N[C@@H](CO)C(=O)N[C@@H](CCSC)C(=O)N[C@@H](CCC(=O)O)C(=O)N[C@@H](CCCNC(=N)N)C(=O)N[C@H](C(=O)N[C@@H](CCC(=O)O)C(=O)N[C@@H](Cc1c[nH]c2ccccc12)C(=O)N[C@@H](CC(C)C)C(=O)N[C@@H](CCCNC(=N)N)C(=O)N[C@@H](CCCCN)C(=O)N[C@@H](CCCCN)C(=O)N[C@@H](CC(C)C)C(=O)N[C@@H](CCC(N)=O)C(=O)N[C@@H](CC(=O)O)C(=O)N[C@H](C(=O)N[C@@H](Cc1cnc[nH]1)C(=O)N[C@@H](CC(N)=O)C(=O)N[C@@H](Cc1ccccc1)C(N)=O)C(C)C)C(C)C [SEQ. ID. NO: 45]
[3]
  EC50: > 100 nM
[2]; [4]
  EC50: 21 ± 2.3 nM
